Measured values reported in patent publication US20220313656A1, “NEW CLASS OF ANTIBIOTICS HAVING LOW MIC-VALUES TOWARDS DIFFERENT STRAINS OF BACTERIA” (priority 2019, published 2022).

Key:
Campylobacter jejuni = experiment: MIC and MBC determination; assay type: cell-based; settings: Clinical isolate
Description: (§1) MBC-value defines the antibiotic activities by the lowest concentration of the compound needed to kill at least 99.9% of the bacteria, also known as minimum bactericidal concentration (MBC) value.
(§2) The MIC for each compound for each bacteria strain was determined by the serial dilution method following the CLSI guidelines (CLSI Clinical and Laboratory Standards Institute: Performance Standards for Antimicrobial Susceptibility Testing: […] M100-S25. Wayne, Pa., USA; 2015.) All compounds were diluted in autoclaved H2O and stored at 4° C. […] Bacterial inoculums were prepared by inoculating 9 ml of H2O with bacterial colonies from agar plate (Oxoid, Roskilde Denmark) supplemented with bovine blood to a final yield a final density of 10^8 colony forming unit (CFU)/mL using a Sensititre™ Nephelometer (Thermo Scientific, Roskilde, Denmark). These inoculums were each in diluted 1:100 in Müller Hinton (MH) broth (Sigma, Copenhagen, Denmark). From the diluted inoculums 100 μl was transferred to each well in a 96-well plate and mixed with the compound to be MIC determined. The plate was incubated for 24 hours at 37° C. (without shaking). The MIC value was determined as the lowest concentration in which no bacterial growth could be visually detected. All MIC determinations were done in duplicates. […] Since all derivatives are new, no control strains (with reference MIC values) were available.

[1] = system: Staphylococcus epidermidis; experiment: MIC and MBC determination; assay type: cell-based; settings: Multiresistant clinical isolate
Description: as §1, §2

Cutibacterium acnes = experiment: MIC and MBC determination; assay type: cell-based; settings: Multiresistant clinical isolate
Description: as §1, §2

Mutagenicity = settings: data not shown
Description: The compound S43 was also assessed for mutagenicity.

S. aureus USA300 = experiment: MIC, serial dilution method (CLSI); assay type: cell-based, Staphylococcus aureus; settings: Staphylococcus aureus, USA300, 24 h; read-out: MIC
Method in brief: (§3)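 Broth microdilution: inocula diluted 1:100 in Müller Hinton broth are mixed with the compound, then incubated unshaken for 24 hours at 37° C. Wells are inspected visually, and the lowest growth-free concentration is taken as MIC, in duplicate.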

[2] = Maximum Tolerated Dose (MTD) in mice; assay type: in vivo; settings: for tolerated dose: mice, observed 4-6 hrs
Description: This experiment is conducted to assess in vivo toxicity of the compounds. […] The study was performed at Statens Serum Institute. The Maximum Tolerated Dose (MTD) was investigated after intravenous (iv), intraperitonalt (ip) and peroral (po) dosing ranging from 5 mg/kg to 100 mg/kg.

[3] = system: Staphylococcus aureus MRSA 43484; experiment: Murine superficial MRSA skin infection model, topical treatment; assay type: in vivo; settings: for reduction of the bacterial loads compared to vehicle treatment: topical twice daily for 3 days, day 4, Balb/C mice; for efficacy in the MRSA skin infection model: formulations at 1% and 2%, compared to vehicle
Description: This experiment is conducted to assess the effect of topical treatment of the compounds against MRSA. Compound S43 was evaluated for efficacy against Staphylococcus aureus MRSA 43484 in an murine skin infection model.
Treatment was performed twice daily for 3 days and sampling of skin biopsies was performed the day after last treatment. Treatment with Fucidic acid was included as a positive control and treatment with vehicle was included as a negative control.
48 Balb/C female mice—18-22 g—Taconic, Denmark, Staphylococcus aureus MRSA43484, Test compound A at 1 and 2% formulations, Test compound B at 2% formulation, Fucidin, 0.9% saline (sterile, SSI), 0.9% saline/Triton-x (sterile, SSI), Sterile water (SSI), 5% Horse Blood Agar plates (SSI), MRSA Brilliance agar plates, Nurofen® Junior (20 mg/ml, Novartis), Zoletil mix/Torbugesic (SSI/QC-BIO), Dermal curette—Miltex 335710.
Approximately 1 hour before inoculation, mice were treated orally with 45 μl nurofen (20 mg ibuprofen/ml corresponding to approximately […]) as pain relief. The mice were anaesthetized with 0.15 ml s.c. of Zoletil mix. The fur was removed from a 2×3-cm area on the back of each mouse by use of an electric shaver. Next, a razor was used to remove all the hair and hereafter the outer most layer of the skin was scraped off with a dermal curette to obtain a 1 cm^2 superficial skin lesion. 10 μl inoculum containing approximately 10^7 CFU was spread on the lesion. After the applied inoculum had dried, the mouse was placed in the cage and kept in a warming cabinet until fully awake.
Topical treatment of was initiated the day after inoculation, Day 1. Mice were treated twice daily (9 a.m and 3 p.m.) for three days. A volume of 50 μl was spread on the inoculated skin area.
Colony counts in the skin lesions were determined on day 1 (start of treatment) and day 4 (the day after completed treatment). The mice were sacrificed day 1 and 4 according to Table 1. The affected skin area was removed by a pair of scissors and tweezers, and collected in a tube for Dispomixer with 1 ml saline. The skin sample was homogenized in a Dispomixer. Each sample was serial diluted in saline/Triton-x and 20-μl spots were applied on MRSA Brillince agar plates. All agar plates were incubated 20-48 hrs at 35° C.

[4] = system: Staphylococus pseudintermedius; experiment: MIC, serial dilution method (CLSI); assay type: cell-based, Staphylococcus pseudintermedius; settings: Staphylococcus pseudintermedius, 24 h; read-out: MIC
Method in brief: as §3

Escherichia coli ESBL1 = experiment: MIC, serial dilution method (CLSI); further: values in mg/L; assay type: cell-based; settings: E. coli ESBL1, Tetracycline resistant; duplicates a/b
Method in brief: as §3

Escherichia coli E24 = experiment: MIC, serial dilution method (CLSI); further: values in mg/L; assay type: cell-based; settings: E. coli E24, ESBL; duplicates a/b
Method in brief: as §3

Streptococcus equi = experiment: MIC, serial dilution method (CLSI); assay type: cell-based; settings: 24 h, read-out: MIC
Method in brief: as §3

Escherichia coli ESBL28 = experiment: MIC, serial dilution method (CLSI); further: values in mg/L; assay type: cell-based; settings: E. coli ESBL28, Tetracycline resistant; duplicates a/b
Method in brief: as §3

Escherichia coli ESBL19 = experiment: MIC, serial dilution method (CLSI); further: values in mg/L; assay type: cell-based; settings: E. coli ESBL19, Tetracycline resistant; duplicates a/b
Method in brief: as §3

Escherichia coli E5 = experiment: MIC, serial dilution method (CLSI); further: values in mg/L; assay type: cell-based; settings: E. coli E5, ESBL; duplicates a/b
Method in brief: as §3

Escherichia coli E6 = experiment: MIC, serial dilution method (CLSI); further: values in mg/L; assay type: cell-based; settings: E. coli E6, ESBL; duplicates a/b
Method in brief: as §3

Escherichia coli ESBL37 = experiment: MIC, serial dilution method (CLSI); further: values in mg/L; assay type: cell-based; settings: E. coli ESBL37, Tetracycline resistant; duplicates a/b
Method in brief: as §3

Escherichia coli E38 = experiment: MIC, serial dilution method (CLSI); further: values in mg/L; assay type: cell-based; settings: E. coli E38, ESBL; duplicates a/b
Method in brief: as §3

Escherichia coli ESBL10 = experiment: MIC, serial dilution method (CLSI); further: values in mg/L; assay type: cell-based; settings: E. coli ESBL10, Tetracycline resistant; duplicates a/b
Method in brief: as §3

Bacillus cereus = experiment: MIC, serial dilution method (CLSI); assay type: cell-based; settings: 24 h, read-out: MIC
Method in brief: as §3

Listeria monocytogenes = experiment: MIC, serial dilution method (CLSI); assay type: cell-based; settings: 24 h, read-out: MIC
Method in brief: as §3

Salmonella enteritidis = experiment: MIC, serial dilution method (CLSI); assay type: cell-based; settings: Salmonella enterica, ENTERITIDIS, 24 h; read-out: MIC
Method in brief: as §3

Escherichia coli ESBL46 = experiment: MIC, serial dilution method (CLSI); further: values in mg/L; assay type: cell-based; settings: E. coli ESBL46, Tetracycline resistant; duplicates a/b
Method in brief: as §3

Escherichia coli E4 = experiment: MIC, serial dilution method (CLSI); further: values in mg/L; assay type: cell-based; settings: E. coli E4, ESBL; duplicates a/b
Method in brief: as §3

E. coli APEC O2 = experiment: MIC, serial dilution method (CLSI); assay type: cell-based, Escherichia coli; settings: Escherichia coli, APECO2, 24 h; read-out: MIC
Method in brief: as §3

S. aureus CC398 = experiment: MIC, serial dilution method (CLSI); assay type: cell-based, Staphylococcus aureus; settings: Staphylococcus aureus, MRSA, 24 h; read-out: MIC
Method in brief: as §3

E. faecalis = experiment: MIC, serial dilution method (CLSI); assay type: cell-based, Enterococcus faecalis; settings: Enterococcus faecalis, 24 h; read-out: MIC
Method in brief: as §3

Escherichia coli E2 = experiment: MIC, serial dilution method (CLSI); further: values in mg/L; assay type: cell-based; settings: E. coli E2, ESBL; duplicates a/b
Description: as §2

E. faecium = experiment: MIC, serial dilution method (CLSI); assay type: cell-based, Enterococcus faecium; settings: Enterococcus faecium, 24 h; read-out: MIC
Method in brief: as §3

SMILES | MIC (S. aureus USA300) | MIC [4] | MIC (Escherichia coli ESBL1) | MIC (Escherichia coli E24) | MIC (Streptococcus equi) | MIC (Escherichia coli ESBL28) | MIC (Escherichia coli ESBL19) | MIC (Escherichia coli E5) | MIC (Escherichia coli E6) | MIC (Escherichia coli ESBL37) | MIC (Escherichia coli E38) | MIC (Escherichia coli ESBL10) | MIC (Bacillus cereus) | MIC (Listeria monocytogenes) | MIC (Salmonella enteritidis) | MIC (Escherichia coli ESBL46) | MIC (Escherichia coli E4) | MIC (E. coli APEC O2) | MIC (S. aureus CC398) | MIC (E. faecalis) | other results
CC(C)=CCCC(C)CC[N+](C)(C)CCCN1c2ccccc2Sc2ccccc21.Cc1ccc(S(=O)(=O)[O-])cc1 (stereo not shown) [Compound S43, N-(3-(10H-phenothiazin-10-yl)propyl)-N,N,3,7-tetramethyloct-6-en-1-aminium 4-methylbenzenesulfonate] | 2 µg/mL | – | – | – | – | – | – | – | – | – | – | – | – | – | – | – | – | – | – | – | MBC (Campylobacter jejuni): 1 µg/mL; MIC (Campylobacter jejuni): 1 µg/mL; MBC [1]: 2 µg/mL; MIC [1]: 2 µg/mL; MBC (Cutibacterium acnes): 1 µg/mL; MIC (Cutibacterium acnes): 1 µg/mL; mutagenic potential (Mutagenicity): did not show indications of mutagenic potential; tolerability ([2]; mice dosed twice po with 100 mg/kg): no signs of discomfort; tolerated dose ([2]; ip dosing): up to 10 mg/kg; tolerated dose ([2]; iv dosing): up to 10 mg/kg; reduction of the bacterial loads compared to vehicle treatment ([3]; 1% formulation): 3.0 log10 CFU; reduction of the bacterial loads compared to vehicle treatment ([3]; 2% formulation): 3.7 log10 CFU; efficacy in the MRSA skin infection model ([3]; 4-methylbenzenesulfonate): significant reduction of the bacterial loads; efficacy in the MRSA skin infection model ([3]; listed as 43, 4-methylbenzenesulfonate): highly effective
CCCCCCCCCCCC[N+](C)(C)CCCN1c2ccccc2Sc2ccc(Cl)cc21.[Br-] [Compound S7, N-(3-(2-chloro-10H-phenothiazin-10-yl)propyl)-N,N-dimethyldodecan-1-aminium bromide] | 0.5 µg/mL | 0.25 µg/mL | 4/4 | 4/4 | 1 µg/mL | 4/4 | 4/4 | 4/4 | 4/4 | 4/4 | 4/4 | 8/8 | 0.25 µg/mL | 0.25 µg/mL | 16 µg/mL | 4/8 | 4/4 | 4 µg/mL | 0.25 µg/mL | 0.5 µg/mL | MIC (Escherichia coli E2): 8/4; MIC (E. faecium): 0.25 µg/mL
CN(C)CCCN1c2ccccc2Sc2ccc(Cl)cc21.Cl [Compound S1, 3-(2-chloro-10H-phenothiazin-10-yl)-N,N-dimethylpropan-1-amine hydrochloride, reference compound] | 64 µg/mL | 32 µg/mL | 32/64 | 64/32 | 16 µg/mL | 32/32 | 32/32 | 32/32 | 32/32 | 32/32 | 64/32 | 64/64 | 64 µg/mL | 32 µg/mL | 64 µg/mL | 32/32 | 64/64 | 64 µg/mL | 32 µg/mL | 64 µg/mL | MIC (E. faecium): 32 µg/mL
